# Values joined by “and” are separate entries in the source; they are usually repeats but may differ in a detail not shown here. Identical values can stand only once. Like-named read-outs stand apart in the source and are kept apart here.
# Key:
# [1] = Activity of degradation impurity relative to compound of formula (I); settings: fraction of parent activity
# Experimental: [drawing 4] the impurity having an activity which is 1/300 of that of the compound of formula (I). […] Whether the stability is good or not is also a key factor in selecting the crystal form of the compound. Accordingly, it is preferred in the present invention that the hydrobromide of the compound of the formula (I) is present in the form of α crystal form. […] In the differential scanning calorimetry of the α crystal form, there is a melting endothermic peak at 170° C.±2° C. Therefore, in the present invention, the structure of the α crystal form is defined by the above-mentioned powder diffraction characteristic peaks and DSC melting peak, and on the basis of this definition, the α crystal form can be clearly distinguished from other three crystal forms.
# [2] = Solubility in water of screened salts (Table 2)
# Description: (§1) In order to achieve the above water solubility goal, the inventors have conducted studies from various aspects, e.g., crystal forms of existing salts, preparation excipients, formation of new salt types, etc., hoping to find a feasible means that can improve water solubility while ensuring better druggability.
# [3] = Hygroscopicity of screened salts (Table 2); assay type: physicochemical
# Description: as §1
# [4] = cited from earlier work
# [5] = prior art information; cited from earlier work
# [6] = statement of CN103221414B / CN201280003321.6, cited from earlier work
# [7] = 40 degrees, RH75% closed, 4 weeks
# [8] = 40 degrees, RH75% closed and 60 degrees open, 34 days
smiles,measurement,setting,value
Cc1cnc2n1-c1ccc(Br)cc1C(c1ccccn1)=N[C@H]2CCC(=O)O,activity relative to that of the compound of formula (I),[1],1/300
COC(=O)CC[C@@H]1N=C(c2ccccn2)c2cc(Br)ccc2-n2c(C)cnc21,solubility,[2]; water,> 100 mg/mL
"O=S(=O)(O)c1cccc2c(S(=O)(=O)O)cccc12 [1,5-naphthalene disulfonate]",Solubility in water,[2],1 mg/mL
same,Hygroscopicity (%),[3],15.9%
COC(=O)CC[C@@H]1N=C(c2ccccn2)c2cc(Br)ccc2-n2c(C)cnc21.O=S(=O)(O)O [(bi)sulfate form 1],Hygroscopicity (%),[3],0.1%
COC(=O)CC[C@@H]1N=C(c2ccccn2)c2cc(Br)ccc2-n2c(C)cnc21.O=S(=O)(O)O [(bi)sulfate form 2],Solubility in water,[2],>100 mg/mL
same,Hygroscopicity (%),[3],24.9%
COC(=O)CC[C@@H]1N=C(c2ccccn2)c2cc(Br)ccc2-n2c(C)cnc21.Cl [Hydrochloride],Solubility in water,[2],>100 mg/mL
same,Hygroscopicity (%),[3],2.8%
COC(=O)CC[C@@H]1N=C(c2ccccn2)c2cc(Br)ccc2-n2c(C)cnc21.O=S(=O)(O)c1ccccc1 [Remimazolam besylate],degradation,[4]; [7],0.5%
same,Solubility in water,[5],8.3 mg/mL
COC(=O)CC[C@@H]1N=C(c2ccccn2)c2cc(Br)ccc2-n2c(C)cnc21 [Remimazolam esylate],degradation,[4]; [7],0.2%
same,Solubility in water,[5],7.8 mg/mL
COC(=O)CC[C@@H]1N=C(c2ccccn2)c2cc(Br)ccc2-n2c(C)cnc21.Cc1ccc(S(=O)(=O)O)cc1 [Remimazolam tosylate],Solubility in water,[5],~10 mg/mL and ~11 mg/mL
same,toxicity compared with besylate / benzene sulfonic acid,[6],less toxic than benzene sulfonic acid
same,toxicity compared with besylate / benzene sulfonic acid,[6]; listed as tosylate of the compound of the formula (I),less toxic than besylate
"COC(=O)CC[C@@H]1N=C(c2ccccn2)c2cc(Br)ccc2-n2c(C)cnc21 [Remimazolam, methyl 3-[(4s)-8-bromo-1-methyl-6-(2-pyridyl)-4H-imidazol[1,2-a][1,4]benzodiazepine-4-yl] propionate]",Solubility in water (mg/mL),[2],almost
same,appearance change,[4]; [8],"yellowing at 40 degrees, RH75% closed and 60 degrees"
same,degradation,[4]; [8],1.5-8%
same,stability of sample,"[4]; 40° C./75% relative humidity (open), reported in CN101501019","deliquescent, discolored, and significantly reduced in content"
same,Hygroscopicity (%),[3]; listed as Free base,1.7%
same,Solubility in water,[5],Almost insoluble in water
COC(=O)CC[C@@H]1N=C(c2ccccn2)c2cc(Br)ccc2-n2c(C)cnc21 [crystal form 1],Solubility in water,[2],>100 mg/mL
same,Hygroscopicity (%),[3]; listed as Hydrobromide crystal form 1,4.6%
COC(=O)CC[C@@H]1N=C(c2ccccn2)c2cc(Br)ccc2-n2c(C)cnc21 [crystal form 2],Solubility in water,[2],>100 mg/mL
COC(=O)CC[C@@H]1N=C(c2ccccn2)c2cc(Br)ccc2-n2c(C)cnc21 [crystal form 3],Solubility in water,[2],>100 mg/mL
same,Hygroscopicity (%),[3]; listed as Hydrobromide crystal form 3,5%
COC(=O)CC[C@@H]1N=C(c2ccccn2)c2cc(Br)ccc2-n2c(C)cnc21 [α crystal form],Solubility in water,[2],>100 mg/mL
same,Hygroscopicity (%),[3]; listed as Hydrobromide crystal form α,2.5%
